Patent US7897723B2, “ErbB receptor-derived peptide fragments” (Københavns Universitet, priority 2006, dated 2011)

Experiments:
L929 cells [1] = assay: Cell proliferation (BrdU incorporation); assay type: cell-based
Description: 2000 L929 cells (ECACC no: 85011425) per well were seeded in a 96 well plate in full medium (containing 10% foetal calf serum) or starvation medium (serum-free). Peptides, ErbB1 kinase inhibitor PD153035 (Calbiochem), and EGF (Sigma-Aldrich) were added immediately after seeding of the cells (for experiments done in full serum) or after 8 hours of incubation (for experiments done in starvation medium) in the concentrations indicated in figures. Cells were grown for 6 hours, then 10 μM bromodeoxyuridine (BrdU) was added, and cells were grown for additional 18 hours. Then, BrdU incorporation in the cells was assayed using the Biotrak ELISA System, version 2 from Amersham Biosciences Europe GmbH (Buckinghamshire, UK) following the manufacturer's protocol.

L929 cells [2] = assay: Cell motility assay (time-lapse video recording); assay type: cell-based
Description: Subconfluent L929 cells were infected with Ad5.CMV-GFP virus according to the manufacturer instruction (Clontech). 24 h after transfection, cells were seeded at a density of 4×10^3 cells/cm^2 and grown for 24 h. Cells were then treated with the indicated concentration of peptide and EGF, and cell positions were recorded every 15 min at 25 fixed positions in each culture for 4 hours using automatic time-lapse video recording. The workstation employed comprised an Eclipse TE300 inverted microscope (Nikon, Japan) equipped with a heated, movable, computer controlled microscope stage. Recordings were performed using the PRIGRA software (developed at the Protein Laboratory, Copenhagen, Denmark).
Analysis of individual cell motility was performed using an automatic procedure for single cell motility evaluation. Briefly, automatic marking of cell positions in consecutive video frames was used for determination of the migration tracks of the cells during the whole recording period. The obtained cell coordinate data were used for the calculation of motility parameters by means of the ‘complex overlapping’ method. Briefly, the mean squared cell displacement, ? d^2 ? , was calculated as the Euclidean distance between two points corresponding to the initial and final position of the cell. The rate of diffusion, R, was calculated by fitting the curve of ? d^2 ? plotted against time to the equation ? d^2(ti) ? =R(τ−P(1−e^(−τ/P))), • where ti is the time interval of interest, τ is the time interval between observations, i.e. 15 min, and P is the persistence time in direction (28). The mean cell speed, Sτ, was calculated as the mean cell displacement taking place between discrete observations ( ? dτ ? ) divided by the time interval between discrete observations (τ), according to the equation:
[formula] • The mean cell-path-length, ? L ? , for a sample of a population of cells at a given time of observation, was calculated as:
[formula] • The locomotive index, LI, was calculated as the ratio of the mean cell displacement and the mean cell-path-length:
[formula] LI was used as a measure of the directional persistence of the cells.

HN5 cells = assay: Cell viability / cell growth (MTS staining); assay type: cell-based, human; conditions: HN5 cells
Description: 2000 HN5 cells per well were seeded in a 96 well plate in full medium (containing 10% fetal calf serum) or starvation medium (serum-free). After 12 hours of incubation, peptides or ErbB1 kinase inhibitor PD153035 (Calbiochem) and/or EGF (Sigma-Aldrich) were added in the concentrations indicated in figures. Cells were grown for 72 hours, then 20 μl MTS One Solution Reagent (Promega, Madison, Wis., USA) were added per 100 μl culture medium in each well, and the plates were incubated for 1-2 hours at 37° C., followed by absorbance measurements at 490 nm.

ErbB1 [3] = target: T1, ErbB1 (Homo sapiens, UniProt P00533); assay: ErbB receptor phosphorylation, NR6 wtEGFR cells; assay type: cell-based; design: expressed in transfected cells; host or cells: NR6 fibroblastoid cells (NR6 wtEGFR); conditions: 10 ng/ml EGF for 10 min, immunoblotting (FIG. 7)
Description: The cells employed for this assay were NR6 wtEGFR cells, which are fibroblastoid cells stably transfected with ErbB1, and human head and neck tumor-derived HN5 cell. Confluent NR6 wtEGFR or HN5 cells were treated with peptide in the indicated concentrations for 30 min, then stimulated with 10 ng/ml EGF (Sigma-Aldrich, St. Louis, Mo., USA) for 10 min. Cells were lysed in lysis buffer (1% (v/v) Triton X-100, 150 mM NaCl, 10 mM Tris pH 7.4, 1 mM EDTA, 1 mM EGTA, 0.5% (v/v) NP-40, phosphatase inhibitors (Phosphatase Inhibitor Cocktail Set II from Calbiochem, La Jolla, Calif., USA) and protease inhibitors (Complete™ Protease Inhibitor Cocktail from Boehringer Mannheim Biochemica, Mannheim, Germany)), and cleared lysate samples containing equal amounts of total protein (as determined by a bicinchoninic acid assay (Pierce, Rockford, Ill., USA)) were subjected in duplicates to 4-12% SDS-PAGE and immunoblotting. […] The intensity of bands was quantified using densitometric analysis employing the software package GeneTools (Syngene, Cambridge, UK).
NR6 wtEGFR cells (a fibroblastoid cell line stably transfected with ErbB1) were treated with peptide in the indicated concentrations for […], then stimulated with 10 ng/ml EGF for 10 min. […] The intensity of bands was quantified using densitometric analysis employing the software package GeneTools (Syngene, Cambridge, UK).

ErbB1 [4] = target: T1, ErbB1; assay: ErbB receptor phosphorylation, HN5 cells; assay type: cell-based; design: the ErbB1 overexpressing human head and neck cancer cell line HN5; endogenous in cells; host or cells: HN5 human head and neck cancer cells; conditions: 100 μM peptide for 30 min, 10 ng/ml EGF for 10 min (FIG. 8)
Description: The cells employed for this assay were NR6 wtEGFR cells, which are fibroblastoid cells stably transfected with ErbB1, and human head and neck tumor-derived HN5 cell. Confluent NR6 wtEGFR or HN5 cells were treated with peptide in the indicated concentrations for 30 min, then stimulated with 10 ng/ml EGF (Sigma-Aldrich, St. Louis, Mo., USA) for 10 min. Cells were lysed in lysis buffer (1% (v/v) Triton X-100, 150 mM NaCl, 10 mM Tris pH 7.4, 1 mM EDTA, 1 mM EGTA, 0.5% (v/v) NP-40, phosphatase inhibitors (Phosphatase Inhibitor Cocktail Set II from Calbiochem, La Jolla, Calif., USA) and protease inhibitors (Complete™ Protease Inhibitor Cocktail from Boehringer Mannheim Biochemica, Mannheim, Germany)), and cleared lysate samples containing equal amounts of total protein (as determined by a bicinchoninic acid assay (Pierce, Rockford, Ill., USA)) were subjected in duplicates to 4-12% SDS-PAGE and immunoblotting. One membrane was probed with anti-phospho-EGFR (phosphotyrosine 1068) antibody (Cell Signaling Technology, Danvers, Mass., USA), the other with anti-EGFR antibody (Cell Signaling Technology). Detection was carried out using horseradish peroxidase (HRP)-conjugated secondary antibodies (DAKO, Denmark) and enhanced chemiluminiscence (Pierce). The intensity of bands was quantified using densitometric analysis employing the software package GeneTools (Syngene, Cambridge, UK).

## LVYNKLTFQLEPNPHTK (Inherbin 3 peptide) [Inherbin3]
L929 cells [1]; L929 cells, full medium, BrdU incorporation (FIG. 2, FIG. 3)
  effect on EGF-induced cell proliferation: able to inhibit EGF-induced cell proliferation significantly
L929 cells [1]; summary for cell proliferation, cell motility and ErbB1 phosphorylation in cells with a lower ErbB1 expression level
  inhibition of the EGF-induced effects: ~100%
L929 cells [2]; L929 cells (FIG. 5C)
  effect on mean cell speed: did not significantly affect the mean cell speed
L929 cells [2]; L929 cells (FIG. 5D)
  effect on locomotive index, LI: reflected the changes seen in rate of diffusion
L929 cells [2]; L929 cells, absence of EGF, peptide dose 10 μM (FIG. 5B)
  effect on rate of diffusion, R: stimulated the rate of diffusion to the level of the EGF-induced response
L929 cells [2]; L929 cells, with EGF (FIG. 5B)
  effect on EGF-induced increase in rate of diffusion, R: significantly inhibited
L929 cells [2]; L929 cells, with EGF, peptide dose 40 μM (FIG. 5B)
  effect on EGF-induced increase in rate of diffusion, R: completely blocked the EGF-induced increase in rate of diffusion
HN5 cells; full medium containing 10% serum (FIG. 6B)
  effect on serum-induced cell growth: inhibited serum-induced cell growth
HN5 cells; starvation medium, EGF-stimulated, 3 days, MTS (FIG. 6A)
  inhibition of the EGF-induced increase in cell growth: ~35%
HN5 cells; starvation medium, without EGF-stimulation (FIG. 6A)
  effect on basal cell growth: no effect on the basal cell growth
ErbB1 [3]
  effect on EGF-induced ErbB1 phosphorylation: inhibited EGF-induced ErbB1 phosphorylation significantly
ErbB1 [4]
  effect on EGF-induced ErbB1 phosphorylation: significantly inhibited EGF-induced ErbB1 phosphorylation
